Data: US10273272B2, “Antimicrobial peptides” (Amprologix Limited, priority 2014, dated 2019)
No end group written: not given here.

Legend:
[1] = test system: MRSA; type: cell-based, Staphylococcus aureus
Description: (§1) Experiments were conducted in which the full-length epidermicin peptide (51 amino acids, SEQ ID NO:10) was truncated to yield the derivatives shown in FIG. 1 (SEQ ID NOs:11 to 19). NI011-37 (SEQ ID NO:11) Is the region most similar to other peptides in the public domain, NI0138-51 (SEQ ID NO:12) is the region that is most unique with respect to other peptides in the public domain. All other truncations have been carried out by removing residues from the amino-terminal end of the peptide to each lysine residue (K). Lysine is important in antimicrobial peptides as it contributes to the net positive charge, which is thought to have a key role in the mode of action of ‘cationic’ peptides, like NI01 (SEQ ID NO:10).

[2] = test system: S. aureus 1195; type: cell-based
Description: as §1

[3] = test system: S. saprophyticus; type: cell-based
Description: as §1

[4] = test system: S. epidermidis; type: cell-based
Description: as §1

[5] = test system: S. Hominis; type: cell-based
Description: as §1

Sequence: KQIKKLWA [SEQ ID NO:19]
- MIC [1]: >64 µg/mL
- MIC [2]: 16 µg/mL
- MIC [3]: 16 µg/mL
- MIC [4]: >64 µg/mL
- MIC [5]: >64 µg/mL
